# Measured values from patent US5760036A, “Aminediol protease inhibitors” (E. R. Squibb & Sons, Inc., priority 1995, dated 1998).
# Structures can show the parent of a compound that is named as a salt. Where two headings read alike, the source gives them in different places.
# What was measured:
# [1] = biological target: T1, HIV protease (Human immunodeficiency virus type 1 group M subtype B, UniProt P04585); experiment: HIV Protease Assay; format: biochemical
# T1 construct: and purified protease
# Outline: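 Purified protease cleaved 450 μM octapeptide substrate in 50 mM sodium acetate pH 5.5 with 100 μg/ml BSA for 30 minutes at 37° C; product analyzed by reverse-phase HPLC at UV220 after H3PO4 quench. Inhibitors tested at final 10 μM with 4% DMSO.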
# [2] = system: RF strain of HIV (CEM-SS cells); experiment: Cell Culture Anti-HIV Activity (cell viability, formazan); format: cell-based; details: CEM-SS cells, RF strain of HIV, multiplicity of infection 0.04, 6 days at 37° C., 450 nm, read-out: HIV (CEM Cells) IC50
# Experimental: The antiviral activity of aminediol inhibitors of the present invention was evaluated by a microculture method which determines the increase in cell viability of an infected culture when a drug is added. The assay depends on the metabolic reduction of tetrazolium reagent by viable cells to yield a soluble colored formazan product.
# The assay was performed as follows: suspensions of CEM-SS cells (5000/well) were infected with the RF strain of HIV at a multiplicity of infection at 0.04 in a 96-well plate. The compounds of the present invention listed in the following Table 1, serially diluted in half-log fashion, were added to the infected and uninfected control cells. Untreated (infected and uninfected) cells were included as controls. Following incubation for 6 days at 37° C., viable cells in each well were quantitated by the visible light absorbance at 450 nm.
# The IC50 was calculated as the concentration of drug that increased the formazan production in virally infected cells to 50% of that produced by uninfected cells in the absence of drug.
# [3] = pH 5.5, 10 μM inhibitor, 4% DMSO, 450 μM substrate, pH 5.5, 30 minutes at 37° C., RP-HPLC, read-out: HIV Protease % Inhibition at 10 μM
# [4] = Human immunodeficiency virus 1, CEM-SS, 144 h
SMILES,"inhibition at 10 µM [1, 3] [%]","IC50 [2, 4] [nM]",also measured
"CC(C)[C@H](NC(=O)OCc1nc2ccccc2[nH]1)C(=O)N[C@@H](Cc1ccccc1)[C@H](O)CNC[C@@H](O)[C@H](Cc1ccccc1)NC(=O)OC(C)(C)C [Compound 93, [S-[1R*,2S*(2S*,3R*)[[-N-[3-[[3-[[(1,1-Dimethylethoxy)carbonyl]amino]-2-hydroxy-4-phenylbutyl]amino]-2-hydroxy-1-(phenylmethyl)propyl]-N2 -]-(1H-benzimidazol-2-ylmethoxy)carbonyl]-L-valinamide]",100,180,
"CC(C)[C@H](NC(=O)[C@H](C)O)C(=O)N[C@@H](Cc1ccccc1)[C@H](O)CNC[C@@H](O)[C@H](Cc1ccccc1)NC(=O)OC(C)(C)C [Compound 225, [1S-[[1R*,2S*(2S*,3R*)],N^2-(R*)]-N-[3-[[3-[[(1,1-Dimethylethoxy)carbonyl]amino]-2-hydroxy-4-phenylbutyl]amino]-2-hydroxy-1-(phenylmethyl)propyl]-N^2-(2-hydroxy-1-oxo-propyl)-L-valinamide]",99,500,
"CC1(C)CCCC1(O)C(=O)N[C@@H](Cc1ccccc1)[C@H](O)CNC[C@@H](O)[C@H](Cc1ccccc1)NC(=O)C1(O)CCCC1(C)C (single isomer, unassigned; isomer b) [Compound 337]",,,"HIV Protease % Inhibition at 10 μM ([1]; 10 μM inhibitor, 4% DMSO, 450 μM substrate, pH 5.5, 30 minutes at 37° C., RP-HPLC): 99%; IC50 [2]: 290 nM"
"COC(=O)N[C@H](C(=O)N[C@@H](Cc1ccc(OCCc2ccccn2)cc1)[C@H](O)CNC[C@@H](O)[C@H](Cc1ccccc1)NC(=O)OC(C)(C)C)C(C)(C)C (relative stereo) [Compound 297, [1R*,2S*(2S*,3R*)]-N-[3-[[3-[[(1,1-Dimethylethoxy)carbonyl]amino]-2-hydroxy-4-phenylbutyl]amino]-2-hydroxy-1-[[4-[r2-(2-pyridinyl)ethoxy]phenyl]methyl]propyl]-N^2-(2-methoxycarbonyl)-3-methyl-L-valinamide]",100,50,
"CC(C)(C)OC(=O)N[C@@H](Cc1ccccc1)[C@H](O)CNC[C@@H](O)[C@H](Cc1ccccc1)NC(=O)OCc1ccccc1 [Compound 45, [R-(R*,S*)]-[Iminobis[2-hydroxy-1-(phenylmethyl)-3,1-propandiyl]biscarbamic acid, 1,1-dimethylethylphenylmethyl ester]",87,500,
"CC(C)[C@H](NC(=O)CC(N)c1ccccc1)C(=O)N[C@@H](Cc1ccccc1)[C@H](O)CNC[C@@H](O)[C@H](Cc1ccccc1)NC(=O)OC(C)(C)C (stereo partly drawn) [Compound 86, [S-[1R*,2S*(2S*,3R*)]-N^2 (3-Amino-1-oxo-3-phenylpropyl)-N-[3-[[3-[[(1,1-dimethylethoxy)carbonyl]amino]-2-hydroxy-4-phenylbutyl]amino-[-2-hydroxy-1-(-phenylmethyl)propyl]-L-valinamide, fumarate (2:3) salt]",78,1800,
"CC(C)(C)OC(=O)N[C@@H](Cc1ccccc1)[C@H](O)CNC[C@@H](O)[C@H](Cc1ccccc1)NC(=O)C1(O)CCCC1(C)C (single isomer, unassigned; isomer b) [Compound 322, [1S-[1R*,2S*(2S*,3R*)]]-[3-[[3-[[2,2-Dimethyl-1-hydroxycyclopentyl)-carbonyl]amino]-2-hydroxy-4-phenylbutyl]amino]-2-hydroxy-1-(phenylmethyl)-propyl]carbamic acid, 1,1-dimethylethyl ester, isomer B]",,,HIV Protease % Inhibition at 10 μM [1]: 100%; IC50 [2]: 20 nM
"CC(C)[C@H](NC(=O)OCc1cc2ccccc2[nH]1)C(=O)N[C@@H](Cc1ccccc1)[C@H](O)CNC[C@@H](O)[C@H](Cc1ccccc1)NC(=O)OC(C)(C)C (relative stereo) [Compound 104, [1R*,2S*(2S*,3R*)]-N-[3-[[3-[[(1,1-dimethylethoxy)carbonyl]amino]-2-hydroxy-4-phenylbutyl]amino]-2-hydroxyl-1-(phenylmethyl)propyl]-N^2-[(1H-indol-2-ylmethoxy)carbonyl]-L-valinamide]",99,30,
"CC(C)[C@H](NC(=O)OCc1ccccc1)C(=O)N[C@@H](Cc1ccccc1)[C@H](O)CNC[C@H](O)[C@H](Cc1ccccc1)NC(=O)OC(C)(C)C [Compound 125, [S-[1R*,2S*(2R*,3R*)]-N-[3-[[3-[[(1,1-Dimethylethoxy)carbonyl]amino]-2-hydroxy-4-phenylbutyl]amino]-2-hydroxy-1-(phenylmethyl)propyl]-N^2 [(phenylmethoxy)carbonyl]-L-valinamide]",71,> 1500,
"CC(C)(C)OC(=O)N[C@@H](Cc1ccccc1)[C@H](O)CNC[C@@H](O)[C@H](Cc1cccc(O)c1)NC(=O)OC(C)(C)C [Compound 29, [1S-[1R*,2S*(2S*,3R*)]]-[3-[[3-[[(1,1-Dimethylethoxy)-carbonyl]amino]-2-hydroxy-4-(3-hydroxyphenyl)butyl]-amino]-2-hydroxy-1-(phenylmethyl)propyl]carbamic acid, 1,1-dimethylethyl ester]",,100,"inhibition at 10 µM ([1]; pH 5.5, read-out: HIV Protease % Inhibition at 10 μM): 100%"
"CC(C)(C)[C@@](C)(O)C(=O)N[C@@H](Cc1ccccc1)[C@H](O)CNC[C@@H](O)[C@H](Cc1ccccc1)NC(=O)[C@](C)(O)C(C)(C)C [Compound 344, [2R-[R*(R*,S*)]]-N,N'-[Iminobis[2-hydroxy-l-(phenylmethyl)-3,1-propanediyl]]bis[2-hydroxy-2,3,3-trimethylbutaneamide]]",99,30,
"COCCOc1ccc(C[C@H](NC(=O)OC(C)(C)CO)[C@H](O)CNC[C@@H](O)[C@H](Cc2ccccc2)NC(=O)OC(C)(C)C)cc1 [Compound 283, [1S-[1R*,2S*(2S*,3R*)]]-[3-[[3-[[(1,1-Dimethylethoxy)carbonyl]amino]-2-hydroxy-4-phenylbutyl]amino]-2-hydroxy-1-8 [4-(2-methoxyethoxy)phenyl]methyl]propyl]carbamic acid, 2-hydroxy-1,1-dimethylethyl ester]",100,110,

# More lines, main results first:
"inhibition at 10 µM [1, 3] [%]",SMILES,"IC50 [2, 4] [nM]",also measured
78,"CC(C)(C)OC(=O)N[C@@H](Cc1ccccc1)[C@H](O)CNC[C@@H](O)[C@H](CCc1ccccc1)NC(=O)OCc1ccccc1 [Compound 24, [1S-[1R*,2S*((2S*,3R*)]]-[3-[[3-[[(1,1-Dimethylethoxy)carbonyl]amino-2-hydroxy-4-phenylbutyl]amino]-2-hydroxy-1-(2-phenylethyl)propyl]carbamic acid, phenylmethyl ester]",4500,
92,"CC(C)(C)OC(=O)N[C@@H](Cc1ccccc1)[C@H](O)CNC[C@@H](O)[C@H](Cc1ccccc1)NC(=O)C1(O)CCOC1 (stereo partly drawn) [Compound 330, [1S-[1R*,2S*(2S*,3R*)]]-[2-hydroxy-3-[[2-hydroxy-3-[[(tetrahydro-3-hydroxy-3-furanyl)carbonyl]amino]-4-phenylbutyl]amino]-1-(phenylmethyl)propyl]carbamic acid, 1,1-dimethylethyl ester]",850,
99,"CC(C)[C@H](NC(=O)CO)C(=O)N[C@@H](Cc1ccccc1)[C@H](O)CNC[C@@H](O)[C@H](Cc1ccccc1)NC(=O)OC(C)(C)C (relative stereo) [Compound 259, [1R*, 2S* (2S*, 3R*)]-N-[3-[[3-[[(1,1-Dimethylethoxy)carbonyl]amino]-2-hydroxy-4-phenylbutyl]amino]-2-hydroxy-1-(phenylmetyl)propyl]-N^2-(hydroxyacetyl)-L-valinamide]",5000,
100,"CC(C)(C)OC(=O)N[C@@H](Cc1ccccc1)[C@H](O)CNC[C@@H](O)[C@H](Cc1ccccc1)NC(=O)[C@@H](NC(=O)OCC1COC(=O)N1)C(C)(C)C (stereo partly drawn) [Compound 315, [S-[1R*,2S*(2S*,3R*)]]-[2,2-Dimethyl-l-[[[3-[[3-[[(1,1-dimethylethoxy)carbonyl]amino]-2-hydroxy-4-phenylbutyl]amino]-2-hydroxy-1-(phenylmethyl)-propyl]amino]carbonyl]propyl]carbamic acid, (2-oxo-4-oxazolidinyl)methyl ester]",1600,
97,CC(C)(C)OC(=O)N[C@@H](Cc1ccccc1)[C@H](O)CNC[C@@H](O)[C@H](Cc1ccccc1)NC(=O)C(O)C(C)(C)C (stereo partly drawn) [Compound 214],50,
100,"CC(C)[C@H](NC(=O)OCc1nc2ccccc2o1)C(=O)N[C@@H](Cc1ccc(O)cc1)[C@H](O)CNC[C@@H](O)[C@H](Cc1ccccc1)NC(=O)OC(C)(C)C (relative stereo) [Compound 288, [1R*,2S*(2S*,3R*)]-N^2-[[(2-Benzoxazolyl)methoxy]carbonyl]-N-[3-[[3-[[(1.1-dimethylethoxy)carbonyl]amino]-2-hydroxy-4-phenylbutyl]amino]-2-hydroxy-1-[(4-hydroxyphenyl)methyl]propyl]-L-valinamide]",470,
